Data on three compounds can be found in patent publication US20180036259A1, “NO DONORS FOR THE TREATMENT OF IMPAIRED TISSUE PERFUSION” (MIRANDAPHARMACEUTICALS AG, priority 2015, published 2018).

For data set [1] the following is noted: in vivo; cited from earlier work.
The conditions of data set [2]: in humans; cited from earlier work.
Data set [3] has as its system arterioles of adductor muscle. The experiment in a line: Arterioles density by alpha-SMA immunohistology, diabetic mice. It is filed as in vivo, diabetic mouse (Bks.Cg+Lepr<db>/+Lepr<db>/OlaHsd). Conditions: alpha-SMA immunohistology (FIG. 12). How it is done: Immunohistology for the alpha-smooth muscle (α-SMA) antigen was employed to highlight the vascular structures within the muscles and allow accurate counting of arterioles. Briefly, sections were deparaffinised in xylene (2×5 min) and rehydrated in decreasing concentrations of ethanol (2×3 min washes in 100% ethanol, followed by 1×3 min wash in 96% ethanol). Sections were washed twice with Tris-buffered saline (TBS, 0.1 M Tris- HCl with 0.9% NaCl, pH 7.4) and incubated for 1 h at room temperature (RT) with the primary antisera (M0851, Dako, Baar, Switzerland), without pretreatment. A detection kit containing the secondary antibody and diaminobenzidine tetrahydrochloride (DAB) as chromogen was subsequently applied according to the manufacturer's protocols
(Peroxidase/DAB plus Mouse Kit; DAKO). Sections were then washed 3 times in TBS and once in distilled water and counterstained for 1 min with haematoxylin, followed by rinsing for 5 min in tap water and dehydration in ascending alcohols, clearing in xylene, coverslipping and mounting. Arterioles density was quantified in histological sections of the adductor muscle. Results were expressed as number of arterioles/mm^2 of tissue.

The subject of the next data set is arterioles. The experiment in a line: Arteriolar remodeling response to ischemia (wall and luminal area), diabetic mice. Conditions: arterioles (FIG. 13). It is filed as in vivo, diabetic mouse (Bks.Cg+Lepr<db>/+Lepr<db>/OlaHsd). The protocol:
These findings corroborate with the remodeling effect of CLC-1011 seen at the vascular wall. To check the arteriolar remodeling response to the ischemia, immunohistochemistry was performed as described above. The remodeling consists in the wall area per luminal area ratio. The measurement of wall and luminal areas and diameter calculation of arterioles was performed in an equal random area for each histological sample. The results shown in FIG. 13a; FIG. 13b and FIG. 13c indicate that the luminal area of the vessels increased in the CLC-1011-treated animals, but not in the Cilostazol- or the placebo-treated animals. Of note, the results indicated no change in the wall area size in either of the groups.

The test system of data set [4] is arterioles of adductor muscle. The experiment in a line: Vascular remodelling, histopathological analysis of isolated adductor muscle. It is filed as in vivo. The note with it: SD rats, compared to Cilostazol and placebo (FIG. 7). How it is done: In order to assess possible effects the different treatments have on vascular remodelling, histopathological analysis of isolated adductor muscle was performed and the vascular luminal- and vascular wall-properties were addressed. […] See FIG. 7 showing in the left panel the arteriolar wall area/luminar ratio in the four treatment arms.

Data set [5] concerns ligated hind limb (unilateral hind limb ischemia). The experiment in a line: Blood perfusion by laser Doppler imaging in rat unilateral hind limb ischemia model of PAD. It is filed as in vivo, Sprague-Dawley (SD) rats. The note with it: SD rats; for blood perfusion in ligated limbs (laser Doppler imaging): hind limb ischemia, CLC-1011 3.6 mg/day by osmotic pump, Cilostazol 100 mg/kg bi-daily orally, over 21 days (FIG. 1). The protocol: (§1) The animals were held in the Open Animal Facility at the Department of Physiology, University of Zurich and used after a suitable period allowing the animals to adapt to the new environment. A unilateral hind limb ischemia was created in the SD rats by surgical intervention, whereby the right hind limb was ligated and the vessels excised as described in Vasc. Pharmacol., 2009, 51(4):268-74. The animals were then randomly assigned to receive either Cilostazol alone (100 mg/kg/bi-daily orally by gavage), CLC-1011 (3.6 mg/day by mini-osmotic pump, e.g. Model #2004, Alzet Inc.) alone, a combination of Cilostazol (100 mg/kg/bi-daily) and CLC-1011 (3.6 mg/day by mini-osmotic pump), or placebo for a total duration of 2 or 4 weeks.
(§2) During the treatment intervals, animals were scanned using laser Doppler imaging every third day post-operation to estimate the blood perfusion in ligated limbs. Blood flow was measured using a laser Doppler imager (Moor, Axminster, UK) and analyzed with the MoorLDI™ Image Review V51 software. The animals were placed on a heating pad in order to maintain constant body temperature during the entire procedure. At the end of the 2 and 4 weeks interval, animals were sacrificed and muscles were isolated and prepared for histological analysis.

The subject of a further data set is platelets. Kind of data set: Platelet activation by mean fluorescence intensity in platelets isolated from treatment groups. It is filed as in vivo. Conditions: platelets from treated rats; resting state (FIG. 8). How it is done: Platelet activation was determined using mean fluorescence measurements.
A further data set has as its system ischemic hind limb. Kind of data set: Blood flow by laser Doppler imaging in diabetic mice with hind limb ischemia. It is filed as in vivo, diabetic mouse (Bks.Cg+Lepr<db>/+Lepr<db>/OlaHsd). The note with it: for blood perfusion (laser Doppler imaging): diabetic mice with hind limb ischemia (FIG. 10a). How it is done: Blood flow was measured by laser Doppler imaging in diabetic mice with hind limb ischemic after treatment with CLC-1011 alone or in a combination with Cilostazol.

Data set [6] concerns endothelial progenitor cells. Kind of data set: Mobilization of putative stem cells into peripheral blood by flow cytometry, diabetic mice. It is filed as in vivo, diabetic mouse (Bks.Cg+Lepr<db>/+Lepr<db>/OlaHsd). The protocol:
Mobilization of putative stern cells from bone marrow into the peripheral blood in the placebo and treated groups mice 7 days after surgery was assessed by flow cytometry in whole blood. The cells were identified using a combination of antibodies that binds to the specific cell surface markers typical for potential angiogenic stem cells.

The subject of data set [7] is stromal cell-derived factor 1 (SDF-1). Kind of data set: Circulating SDF-1 levels in serum by ELISA. It is filed as in vivo. The note with it: rats; serum at day 6 post-ischemia; ELISA (FIG. 9). The protocol: The stromal cell-derived factor 1 (SDF-1) is a circulating proangiogenic cytokine, which plays an important role in angiogenesis. Serum of rats from 4 treatment arms was collected at day 6 post-ischemia. SDF-1 levels were determined by ELISA using methods known in the art.
On the technique in general: An ELISA detects its analyte on a solid surface through an enzyme-linked reagent.

A further data set concerns adductor muscles. The experiment in a line: Immunohistochemical analysis of adductor muscles (capillary density), diabetic mice. It is filed as in vivo, diabetic mouse (Bks.Cg+Lepr<db>/+Lepr<db>/OlaHsd). The note with it: normalized by number of myocytes (FIG. 11a, 11b).
Data set [8] has as its system adductor muscle of hypoxic limb. Kind of data set: Histological analysis of muscles (new vessels, capillary and arteriole density), rat hind limb ischemia. It is filed as in vivo, Sprague-Dawley (SD) rats. The note with it: SD rats; for number of arterioles in isolated muscles (arterioles density/mm^2): at 4 weeks, compared to Cilostazol- and placebo-treated animals (FIG. 5). How it is done: as §1, §2

[9] abbreviates: whole blood flow cytometry, 7 days after surgery (FIG. 14).

“Also recorded” adds a separate entry of the source.

With `NCCO[N+](=O)[O-]` [AEN, 2-aminoethyl nitrate], in data set [1], the half-live entry is on record as “approx. 2 hours”. In addition, the nitrate tolerance result in data set [2] was “does not provoke nitrate tolerance”.

As for `O=C1CCc2cc(OCCCCc3nnnn3C3CCCCC3)ccc2N1` [Cilostazol, reference compound], in data set [3], the “arterioles density in the hind limb” value is “no change”. The “luminal area of the vessels” value is reported as “not” with arterioles and “such effect is absent” in [4]. The “blood perfusion in ligated limbs (laser Doppler imaging)” value in data set [5] is recorded as “no effect in blood flow”. Besides, in the data set with platelets, the “platelet activation (mean fluorescence intensity)” value is “no effect in prevention of platelet activation and aggregation”. The “blood perfusion (laser Doppler imaging)” value in the data set with ischemic hind limb is on record as “remains unchanged”.

For `NCCO[N+](=O)[O-]` [CLC-1011, 2-aminoethyl nitrate], the “arterioles density in the hind limb” value in [3] is “increase of the arterioles”. Also, the “recruitment of the endothelial progenitor cells” value in [6] (peripheral blood 7 days after surgery) is “enhances the recruitment of the endothelial progenitor cells”. Moreover, the “number of potential endothelial progenitor cells positive for VEGFR2” value in [6] (setting [9]) is “increase in the number of potential endothelial progenitor cells”. Besides, the “number of potential endothelial progenitor cells positive for stem cell antigen 1 (Sca-1)” value in [6] (setting [9]) is “increase in the number of potential endothelial progenitor cells”. Also, the “circulating SDF-1 levels in serum” value in data set [7] was “induced the release of the circulating SDF-1”. The “luminal area of the vessels” value was “increased” in the data set on arterioles and “significantly increases luminal area” in data set [4]. For the same compound, the “capillary density in adductor muscles” value in the data set with adductor muscles is on record as “increase of the capillary density”. Also, the “blood perfusion in ligated limbs (laser Doppler imaging)” value in [5] is recorded as “increase in blood perfusion”. Moreover, the “time up to which the increase in blood perfusion can be detected” value in [5] (ligated hind limb normalized to contralateral limb (FIG. 6)) is “up to 3 weeks”. Besides, the “angiogenesis / capillary density in the adductor muscle” value in data set [8] (after 2 and 4 weeks of treatment, 28 days after surgery (FIG. 4)) is “significant arteriogenic effects; also recorded: angiogenesis has been stimulated”. For the same compound, the “number of arterioles in isolated muscles (arterioles density/mm^2)” value is on record as “significant arteriogenic effects” in data set [8] and “significantly contributes to an increase of the number of arterioles” in [8] (listed as CL-1011). In addition, the “formation of new blood vessels in hypoxic limb tissue” value in [8] (tissue sections (FIG. 3)) is on record as “clear increase in the formation of new blood vessels”. The “platelet activation (mean fluorescence intensity)” value in the data set on platelets is on record as “significantly prevents activation of platelets in resting state”. Moreover, the “blood perfusion (laser Doppler imaging)” value with ischemic hind limb is given as “increase in the blood perfusion; also recorded: increased blood perfusion”. Besides, the “area under the curve of blood flow” value with ischemic hind limb (diabetic mice with hind limb ischemia (FIG. 10b)) was “increase of the area under the curve”.
